Test results: ChEMBL document CHEMBL5465560, “Selectivity Literature for EUbOPEN Chemogenomic Library” (2024)

Legend:
[1] = target: T1, Myosin-IIIb (Homo sapiens) (UniProt Q8WXR4); test: Selectivity interaction (KinomeScan (DiscoverX)) EUB0001079a MYO3B; settings: at 1 µM
T1 sequence (whole entry): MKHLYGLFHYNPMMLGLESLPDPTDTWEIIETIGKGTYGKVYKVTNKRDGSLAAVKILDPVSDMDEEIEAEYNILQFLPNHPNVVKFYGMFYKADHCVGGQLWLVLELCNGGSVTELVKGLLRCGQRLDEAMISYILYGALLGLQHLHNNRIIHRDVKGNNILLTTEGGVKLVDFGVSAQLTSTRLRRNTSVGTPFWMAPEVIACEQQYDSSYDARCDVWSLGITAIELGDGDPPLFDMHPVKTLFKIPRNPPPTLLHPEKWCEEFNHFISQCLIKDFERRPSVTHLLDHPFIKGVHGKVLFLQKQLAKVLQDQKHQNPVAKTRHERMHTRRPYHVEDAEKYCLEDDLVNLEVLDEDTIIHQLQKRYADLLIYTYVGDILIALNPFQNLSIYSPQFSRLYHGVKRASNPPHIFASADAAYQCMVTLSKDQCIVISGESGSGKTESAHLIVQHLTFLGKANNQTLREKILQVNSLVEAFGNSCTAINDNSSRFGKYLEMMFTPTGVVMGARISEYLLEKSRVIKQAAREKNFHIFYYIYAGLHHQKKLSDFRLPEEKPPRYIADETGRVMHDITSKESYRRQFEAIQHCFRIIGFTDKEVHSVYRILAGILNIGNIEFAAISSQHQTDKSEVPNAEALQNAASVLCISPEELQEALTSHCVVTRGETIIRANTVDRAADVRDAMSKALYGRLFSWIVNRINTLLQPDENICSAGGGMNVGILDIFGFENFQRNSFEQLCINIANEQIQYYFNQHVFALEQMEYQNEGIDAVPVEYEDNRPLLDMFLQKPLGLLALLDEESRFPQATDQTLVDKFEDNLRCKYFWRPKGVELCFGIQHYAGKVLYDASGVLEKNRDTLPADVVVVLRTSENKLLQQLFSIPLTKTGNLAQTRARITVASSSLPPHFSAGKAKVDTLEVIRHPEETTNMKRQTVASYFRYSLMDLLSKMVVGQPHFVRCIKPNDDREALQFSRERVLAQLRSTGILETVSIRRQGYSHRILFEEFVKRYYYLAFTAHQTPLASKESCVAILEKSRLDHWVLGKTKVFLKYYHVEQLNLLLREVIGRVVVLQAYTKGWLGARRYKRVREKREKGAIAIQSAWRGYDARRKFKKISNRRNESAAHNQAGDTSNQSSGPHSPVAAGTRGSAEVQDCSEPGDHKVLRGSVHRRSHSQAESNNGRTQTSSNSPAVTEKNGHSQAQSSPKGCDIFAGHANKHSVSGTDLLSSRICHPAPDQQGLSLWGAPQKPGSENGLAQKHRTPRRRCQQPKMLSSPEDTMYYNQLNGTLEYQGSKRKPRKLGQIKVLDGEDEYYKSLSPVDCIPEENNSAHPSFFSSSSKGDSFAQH

[2] = target: Serine/threonine-protein kinase Nek7 (Homo sapiens) (UniProt Q8TDX7); test: Selectivity interaction (ActivX KiNativ screen (kinase selectivity in THP-1 cell lysates)) EUB0000639a NEK7; type: subcellular; settings: lysate, at 0.01 µM
[3] = target: T2, Dual specificity mitogen-activated protein kinase kinase 6 (Homo sapiens) (UniProt P52564); test: Selectivity interaction (KinomeScan (DiscoverX)) EUB0000045b MAP2K6
T2 sequence (whole entry): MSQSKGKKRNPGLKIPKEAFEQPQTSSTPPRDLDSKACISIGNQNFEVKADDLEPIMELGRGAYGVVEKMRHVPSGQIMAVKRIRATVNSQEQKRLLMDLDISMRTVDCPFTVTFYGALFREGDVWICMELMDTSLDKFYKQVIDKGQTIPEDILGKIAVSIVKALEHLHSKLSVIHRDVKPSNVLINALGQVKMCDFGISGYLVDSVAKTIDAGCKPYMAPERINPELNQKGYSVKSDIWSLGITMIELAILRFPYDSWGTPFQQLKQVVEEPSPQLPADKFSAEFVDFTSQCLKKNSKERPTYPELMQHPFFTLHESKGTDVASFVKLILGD

[4] = target: T3, Phosphatidylinositol 4,5-bisphosphate 3-kinase catalytic subunit delta isoform (Homo sapiens) (UniProt O00329); test: Selectivity interaction (KinomeScan (DiscoverX)) EUB0001619a PIK3CD; settings: at 1 µM
T3 sequence (whole entry): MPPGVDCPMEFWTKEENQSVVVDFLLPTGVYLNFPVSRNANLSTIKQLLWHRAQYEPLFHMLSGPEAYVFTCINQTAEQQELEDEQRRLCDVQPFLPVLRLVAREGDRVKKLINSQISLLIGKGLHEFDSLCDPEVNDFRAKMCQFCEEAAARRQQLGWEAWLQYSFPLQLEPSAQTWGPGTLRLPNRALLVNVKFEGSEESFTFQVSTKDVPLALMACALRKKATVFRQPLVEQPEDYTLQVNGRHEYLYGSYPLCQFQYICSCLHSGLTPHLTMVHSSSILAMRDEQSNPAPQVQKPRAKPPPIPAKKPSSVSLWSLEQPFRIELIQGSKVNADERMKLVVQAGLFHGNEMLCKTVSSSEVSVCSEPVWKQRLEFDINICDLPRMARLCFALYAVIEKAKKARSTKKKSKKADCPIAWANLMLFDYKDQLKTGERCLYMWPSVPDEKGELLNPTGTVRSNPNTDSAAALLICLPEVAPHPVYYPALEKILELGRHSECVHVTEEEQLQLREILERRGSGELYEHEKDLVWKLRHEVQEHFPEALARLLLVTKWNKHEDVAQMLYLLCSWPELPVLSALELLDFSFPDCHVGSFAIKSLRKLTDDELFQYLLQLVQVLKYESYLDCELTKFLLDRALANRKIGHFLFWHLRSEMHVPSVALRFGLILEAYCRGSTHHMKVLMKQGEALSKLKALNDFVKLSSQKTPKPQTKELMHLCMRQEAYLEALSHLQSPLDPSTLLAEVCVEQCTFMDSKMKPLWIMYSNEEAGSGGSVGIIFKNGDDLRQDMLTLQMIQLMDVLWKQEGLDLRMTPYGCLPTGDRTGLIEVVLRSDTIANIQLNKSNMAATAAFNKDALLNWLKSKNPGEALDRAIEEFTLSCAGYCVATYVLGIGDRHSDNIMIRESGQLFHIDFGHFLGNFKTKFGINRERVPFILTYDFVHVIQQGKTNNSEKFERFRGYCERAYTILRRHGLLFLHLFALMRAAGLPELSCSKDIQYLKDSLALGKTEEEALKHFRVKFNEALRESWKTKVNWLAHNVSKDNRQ

Sequence of Serine/threonine-protein kinase Nek7 (Homo sapiens) (Q8TDX7 whole entry, looked up): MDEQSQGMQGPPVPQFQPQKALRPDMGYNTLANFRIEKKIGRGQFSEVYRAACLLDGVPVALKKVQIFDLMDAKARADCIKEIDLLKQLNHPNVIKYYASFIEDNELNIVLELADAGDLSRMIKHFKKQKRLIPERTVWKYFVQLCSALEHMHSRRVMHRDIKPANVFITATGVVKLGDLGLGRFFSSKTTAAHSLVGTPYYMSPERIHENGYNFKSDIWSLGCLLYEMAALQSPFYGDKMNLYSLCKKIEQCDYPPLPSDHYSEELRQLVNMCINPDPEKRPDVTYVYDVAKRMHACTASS

## Nc1cnc(N2CCc3cc(S(=O)(=O)Nc4c(F)cc(Cl)cc4F)cc(N4CCCC4=O)c32)nc1 [TP-020n]
[1]
  % of control: 100%

## CC[C@@H]1[C@H](F)C(=O)N[C@@H]1COc1nccc2cc(C(N)=O)c(OC)cc12 [ZIMLOVISERTIB]
[2]
  % of inhibition: -2.2%

## C=CC(=O)Nc1cc(-n2c(=O)ccc3cnc4ccc(-c5ccc(NS(C)(=O)=O)cc5)cc4c32)ccc1C
[3]; at 1 µM
  % of control: 100%
[3]; at 10 µM
  % of control: 70%

## N#Cc1cccc(-c2c[nH]c3ncnc(N4CCOCC4)c23)c1
[4]
  % of control: 100%
